Results taken from patent US20070128217A1 (priority 2003, published 2007).

How the values were obtained:
[1] = tested on: rabbit serum obtained by immunizing a rabbit with the SARS-CoV strain Frankfurt 1; assay type: binding; parameters: Binding of a rabbit serum to linear peptides / Binding of a rabbit serum to looped peptides / Rabbit serum linear peptides / Rabbit serum looped peptides / Binding of a rabbit serum to linear peptides of protein N of SARS-CoV Urbani (Rabbit serum linear peptides) / Binding of a rabbit serum to looped/cyclic peptides of protein N of SARS-CoV Urbani (Rabbit serum looped peptides): unit not given here
[2] = tested on: control sera (pooled serum of ten healthy LUMC hospital workers; commercial negative donor pooled serum from the Dutch bloodbank); assay type: binding, human
[3] = tested on: antibodies in sera from SARS patients (sera 1a, 1b, 2, 6, 37, 62, London, SARS-yellow, SARS-green); assay type: binding, human; parameters: Binding of serum 6 to linear peptides of protein X1 of SARS-CoV Urbani / Binding of serum 37 to linear peptides of protein X1 of SARS-CoV Urbani / Binding of serum 6 to looped/cyclic peptide (PEPSCAN-ELISA) / Binding of serum 37 to looped/cyclic peptide (PEPSCAN-ELISA) / Binding of serum 37 to looped/cyclic peptides of protein X1 of SARS-CoV Urbani / Binding of serum 6 to linear peptides of protein X2 / Binding of serum 37 to linear peptides of protein X2 / Binding of serum 37 to looped/cyclic peptides of protein X2 of SARS-CoV Urbani / Binding of serum 6 to linear peptides of protein M of SARS-CoV Urbani / Binding of serum 37 to linear peptides of protein M of SARS-CoV Urbani / Binding of serum 6 to looped/cyclic peptides of protein M of SARS-CoV Urbani / Binding of serum 37 to looped/cyclic peptides of protein M of SARS-CoV Urbani / Binding of serum 6 to linear peptides of protein X3 of SARS-CoV Urbani / Binding of serum 37 to linear peptides of protein X3 of SARS-CoV Urbani / Binding of serum 37 to looped/cyclic peptides of protein X3 of SARS-CoV Urbani / Binding of serum 6 to linear peptides of protein X4 of SARS-CoV Urbani / Binding of serum 37 to linear peptides of protein X4 of SARS-CoV Urbani / Binding of serum 37 to looped/cyclic peptides of protein X4 of SARS-CoV Urbani / Binding of serum 6 to linear peptides of protein X5 of SARS-CoV Urbani / Binding of serum 37 to linear peptides of protein X5 of SARS-CoV Urbani / Binding of serum 37 to looped/cyclic peptides of protein X5 of SARS-CoV Urbani / Binding of serum 6 to linear peptides of protein N of SARS-CoV Urbani / Binding of serum 37 to linear peptides of protein N of SARS-CoV Urbani / Binding of serum 6 to linear peptide (PEPSCAN-ELISA) / Binding of serum 1a to looped/cyclic peptides of protein N of SARS-CoV Urbani / Binding of serum 1b to looped/cyclic peptides of protein N of SARS-CoV Urbani / Binding of serum 2 to looped/cyclic peptides of protein N of SARS-CoV Urbani / Binding of serum 6 to looped/cyclic peptides of protein N of SARS-CoV Urbani / Binding of serum 37 to looped/cyclic peptides of protein N of SARS-CoV Urbani / Binding of serum 62 to looped/cyclic peptides of protein N of SARS-CoV Urbani / Binding of serum London to looped/cyclic peptides of protein N of SARS-CoV Urbani / Binding of serum SARS-green to looped/cyclic peptides of protein N of SARS-CoV Urbani: unit not given here

FMMSRRRLLACLCKH
Binding of a rabbit serum to linear peptides [1]: 0.4 | Binding of a rabbit serum to looped peptides [1]: 0.6 | Binding of Control Serum Blood-Bank to Looped peptides [2]: 0.6 | Binding of Control serum Blood-bank to linear peptides [2]: 0.7 | Binding of Control serum LUMC to linear peptides [2]: 0.4 | Binding of Control serum LUMC to looped peptides [2]: 0.5 | Binding of serum 1a to linear peptides of protein X2 [3]: 0.7 | Binding of serum 1a to looped/cyclic peptides of protein X2 of SARS-CoV Urbani [3]: 0.4 | Binding of serum 1b to linear peptides of protein X2 [3]: 0.5 | Binding of serum 1b to looped/cyclic peptides of protein X2 of SARS-CoV Urbani [3]: 0.4 | Binding of serum 2 to linear peptides of protein X2 [3]: 0.5 | Binding of serum 2 to looped/cyclic peptides of protein X2 of SARS-CoV Urbani [3]: 0.3 | Binding of serum 6 to linear peptides of protein X2 [3]: 0.7 | Binding of serum 6 to looped/cyclic peptides of protein X2 of SARS-CoV Urbani [3]: 0.5 | Binding of serum 37 to linear peptides of protein X2 [3]: 0.6 | Binding of serum 37 to looped/cyclic peptides of protein X2 of SARS-CoV Urbani [3]: 0.3 | Binding of serum 62 to linear peptides of protein X2 [3]: 0.6 | Binding of serum 62 to looped/cyclic peptides of protein X2 of SARS-CoV Urbani [3]: 0.4 | Binding of serum London to linear peptides of protein X2 [3]: 0.7 | Binding of serum London to looped/cyclic peptides of protein X2 of SARS-CoV Urbani [3]: 1.2 | Binding of serum SARS-green to linear peptides of protein X2 [3]: 0.5 | Binding of serum SARS-green to looped/cyclic peptides of protein X2 of SARS-CoV Urbani [3]: 0.3 | Binding of serum SARS-yellow to linear peptides of protein X2 [3]: 0.5 | Binding of serum SARS-yellow to looped/cyclic peptides of protein X2 of SARS-CoV Urbani [3]: 0.5

FRIAIWNLDVIISSI
Rabbit serum linear peptides [1]: 0.3 | Rabbit serum looped peptides [1]: 0.2 | Binding of Control Serum Blood-Bank to Looped peptides of the protein X3 of SARS-CoV Urbani [2]: 0.8 | Binding of Control serum Blood-bank to linear peptides of the protein X3 of SARS-CoV Urbani [2]: 0.7 | Binding of Control serum LUMC to linear peptides of the protein X3 of SARS-CoV Urbani [2]: 0.6 | Binding of Control serum LUMC to looped peptides of the protein X3 of SARS-CoV Urbani [2]: 0.7 | Binding of serum 1a to linear peptides of protein X3 of SARS-CoV Urbani [3]: 0.8 | Binding of serum 1a to looped/cyclic peptides of protein X3 of SARS-CoV Urbani [3]: 0.7 | Binding of serum 1b to linear peptides of protein X3 of SARS-CoV Urbani [3]: 0.5 | Binding of serum 1b to looped/cyclic peptides of protein X3 of SARS-CoV Urbani [3]: 0.5 | Binding of serum 2 to linear peptides of protein X3 of SARS-CoV Urbani [3]: 0.6 | Binding of serum 2 to looped/cyclic peptides of protein X3 of SARS-CoV Urbani [3]: 0.7 | Binding of serum 6 to linear peptides of protein X3 of SARS-CoV Urbani [3]: 0.4 | Binding of serum 6 to looped/cyclic peptides of protein X3 of SARS-CoV Urbani [3]: 0.3 | Binding of serum 37 to linear peptides of protein X3 of SARS-CoV Urbani [3]: 0.5 | Binding of serum 37 to looped/cyclic peptides of protein X3 of SARS-CoV Urbani [3]: 0.6 | Binding of serum 62 to linear peptides of protein X3 of SARS-CoV Urbani [3]: 0.7 | Binding of serum 62 to looped/cyclic peptides of protein X3 of SARS-CoV Urbani [3]: 0.6 | Binding of serum London to linear peptides of protein X3 of SARS-CoV Urbani [3]: 0.7 | Binding of serum London to looped/cyclic peptides of protein X3 of SARS-CoV Urbani [3]: 0.2 | Binding of serum SARS-green to linear peptides of protein X3 of SARS-CoV Urbani [3]: 0.4 | Binding of serum SARS-green to looped/cyclic peptides of protein X3 of SARS-CoV Urbani [3]: 0.2 | Binding of serum SARS-yellow to linear peptides of protein X3 of SARS-CoV Urbani [3]: 0.7 | Binding of serum SARS-yellow to looped/cyclic peptides of protein X3 of SARS-CoV Urbani [3]: 0.8
